In PubChem BioAssay (NCI):
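Interpolation was linear, between the two tested concentrations surrounding the appropriate level; five concentrations were tested over 48 hours in 96-well plates. TGI is the concentration that stops growth completely.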

Tests used:
Assay in all cases: NCI anticancer screen, dose series, 48 h
[1] = system: 786-0 renal
[2] = system: A498 renal
[3] = system: A549 NSCLC
[4] = system: ACHN renal
[5] = system: BT-549 breast
[6] = system: CAKI-1 renal
[7] = system: CCRF-CEM leukemia
[8] = system: COLO 205 colon
[9] = system: DU-145 prostate
[10] = system: EKVX NSCLC
[11] = system: HCC-2998 colon
[12] = system: HCT-116 colon
[13] = system: HCT-15 colon
[14] = system: HL-60(TB) leukemia
[15] = system: HOP-62 NSCLC
[16] = system: HOP-92 NSCLC
[17] = system: HS 578T breast
[18] = system: HT29 colon
[19] = system: IGROV1 ovarian
[20] = system: K-562 leukemia
[21] = system: KM12 colon
[22] = system: LOX IMVI melanoma
[23] = system: M14 melanoma
[24] = system: MALME-3M melanoma
[25] = system: MCF7 breast
[26] = system: MDA-MB-231 breast
[27] = system: MDA-MB-435
[28] = system: MDA-N
[29] = system: MOLT-4 leukemia
[30] = system: NCI-H226 lung
[31] = system: NCI-H23 lung
[32] = system: NCI-H460 lung
[33] = system: NCI-H522 lung
[34] = system: NCI/ADR-RES ovarian
[35] = system: OVCAR-3 ovarian
[36] = system: OVCAR-4 ovarian
[37] = system: OVCAR-5 ovarian
[38] = system: OVCAR-8 ovarian
[39] = system: PC-3 prostate
[40] = system: RPMI-8226 leukemia
[41] = system: RXF 393 renal
[42] = system: SF-268 CNS
[43] = system: SF-295 CNS
[44] = system: SF-539 CNS
[45] = system: SK-MEL-2 melanoma
[46] = system: SK-MEL-28 melanoma
[47] = system: SK-MEL-5 melanoma
[48] = system: SK-OV-3 ovarian
[49] = system: SN12C renal
[50] = system: SNB-19 CNS
[51] = system: SNB-75 CNS
[52] = system: SR leukemia
[53] = system: SW-620 colon
[54] = system: T-47D breast
[55] = system: TK-10 renal
[56] = system: U251 CNS
[57] = system: UACC-257 melanoma
[58] = system: UACC-62 melanoma
[59] = system: UO-31 renal
[60] = system: DLD-1 colon
[61] = system: DMS 114 small cell lung
[62] = system: HOP-18 NSCLC
[63] = system: KM20L2 colon
[64] = system: LXFL 529 NSCLC
[65] = system: M19-MEL melanoma

Measured: TGI

COc1ccc(-c2nc(N)c(C#N)c3c2CCSc2ccc(C)cc2-3)cc1OC
35.8 µM: [26]
> 67.2 µM: [9]
> 50.2 µM: [22]
27.2 µM: [59]
> 100 µM: [3] | [15] | [23] | [24] | [27] | [33] | [35] | [37] | [39] | [41] | [43] | [53] | [55] | [56]
> 53.1 µM: [18]
26.6 µM: [8]
55 µM: [16]
> 63.2 µM: [2]
52.9 µM: [17]
> 61.5 µM: [32]
> 75.6 µM: [45]
> 57.8 µM: [11]
> 85.3 µM: [10]
25.1 µM: [29]
34.2 µM: [21]
> 76.2 µM: [57]
70.8 µM: [5]
25.2 µM: [47]
> 58 µM: [34]
18.1 µM: [52]
30.7 µM: [12]
93.9 µM: [42]
> 93.8 µM: [36]
47.1 µM: [58]
> 70.9 µM: [30]
63.5 µM: [25]
> 91.2 µM: [19]
13.7 µM: [20]
71.3 µM: [51]
7.09 µM: [40]
23.6 µM: [7]
> 73.1 µM: [13]
> 73.6 µM: [38]
> 45.5 µM: [28]
58.9 µM: [44]
> 31.5 µM: [54]
> 70.5 µM: [6]
> 61.1 µM: [1]
> 73.9 µM: [4]
> 83.5 µM: [50]
> 81.8 µM: [46]
> 95.1 µM: [48]
17.7 µM: [14]
> 61 µM: [31]
44.4 µM: [49]

O=C(CC(=O)N(C(=O)c1ccccc1)c1ccc(Cl)cc1)N/N=C\c1ccccc1O
67.4 µM: [51]
75 µM: [16]
81.3 µM: [17]
80.9 µM: [43]
89.2 µM: [15]
54.3 µM: [48]
> 100 µM: [1] | [2] | [3] | [4] | [5] | [6] | [7] | [8] | [9] | [10] | [11] | [12] | [13] | [14] | [18] | [19] | [20] | [21] | [22] | [23] | [24] | [25] | [26] | [27] | [28] | [29] | [30] | [31] | [32] | [33] | [34] | [35] | [36] | [37] | [38] | [39] | [40] | [41] | [42] | [44] | [45] | [46] | [47] | [49] | [50] | [52] | [53] | [54] | [55] | [56] | [57] | [59]

CC1=NN(C(=O)CC(=O)Nc2ccccc2C)C(=O)C1N=Nc1ccc(S(=O)(=O)c2ccc(N=NC3C(=O)N(C(=O)CC(=O)Nc4ccccc4C)N=C3C)cc2)cc1 (stereo unspecified)
> 100 µM: [1] | [2] | [3] | [4] | [5] | [6] | [7] | [8] | [9] | [10] | [11] | [12] | [13] | [14] | [15] | [16] | [17] | [18] | [19] | [20] | [21] | [22] | [23] | [24] | [25] | [26] | [27] | [28] | [29] | [30] | [31] | [32] | [33] | [34] | [35] | [36] | [37] | [38] | [39] | [40] | [41] | [42] | [43] | [44] | [45] | [46] | [47] | [48] | [49] | [50] | [51] | [52] | [54] | [55] | [56] | [57] | [58] | [59]

[N-]=[N+]=Nc1ccccc1-[n+]1noc([O-])c1Br
> 100 µM: [1] | [3] | [4] | [6] | [7] | [8] | [60] | [61] | [10] | [12] | [13] | [14] | [62] | [15] | [16] | [18] | [19] | [20] | [21] | [63] | [64] | [23] | [65] | [24] | [29] | [30] | [31] | [32] | [33] | [35] | [36] | [38] | [40] | [41] | [42] | [43] | [44] | [45] | [46] | [47] | [48] | [49] | [50] | [51] | [52] | [53] | [55] | [56] | [57] | [58] | [59]
